According to publication PMC11996864, “A small-molecule inhibitor of BCL10-MALT1 interaction abrogates progression of diffuse large B cell lymphoma” (The Journal of Clinical Investigation, 2025):
“And” between values parts separate entries of the source, which are not always exact repeats. Equal values may be shown once. “Also recorded” adds a separate entry of the source. Read-outs that look alike come from different tables or passages of the source.

Columns and labels:
[1] = biological target: T1, binding of Id1 to immobilized MyoD (Homo sapiens, UniProt P41134); experiment: MyoD1/ID1 ELISA (specificity control); conditions: for inhibition of binding of Id1 to immobilized MyoD: result in words
T1 construct: purchased Proteintech Ag13359 (GST-ID1); Ag13186 (His-MyoD1)
T1 sequence (P41134 1-155): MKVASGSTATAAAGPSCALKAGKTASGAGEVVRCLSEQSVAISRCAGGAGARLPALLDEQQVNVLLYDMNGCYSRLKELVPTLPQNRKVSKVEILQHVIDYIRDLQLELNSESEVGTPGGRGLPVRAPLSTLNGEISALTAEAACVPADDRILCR
Description: ELISA-based protein-protein interaction assay. On a high-binding 96-well ELISA microplate (Greiner Cat# 655061), 100 ng of His-tagged recombinant human full-length BCL10 protein (Novus Cat# NBP1-99064) or in 100 µl PBS was allowed to adhere overnight at 4°C. The plate was blocked with 5% BSA in PBS for 1 hour at room temperature. After washing twice with PBS-T, a mixture of 100 ng of GST-tagged recombinant human full-length MALT1 protein (Novus Biologicals Cat# H00010892-P01) and compound that was preincubated for 1 hour in 100 μl PBS was added to the plate for 1 hour at room temperature. After washing three times with PBS-T, anti-MALT1 antibody (Cell Signaling Technology, Cat# 2494) in 5% BSA in PBS was added at 1:1000 dilution for 1 hour at room temperature. After washing three times with PBS-T, HRP-conjugated secondary antibody in 5% BSA in PBS was added at 1:5000 dilution for 1 hour at room temperature. After washing three times with PBS-T, 100 µl of 3,3’,5,5’-tetramethylbenzidine (TMB) substrate solution (Thermo Scientific, Cat# 34028) was added for up to 15 minutes, and 100 µl of 2 M sulfuric acid was added to stop the reaction. The plate was read at 450 nm using a spectrophotometer (Molecular Devices SpectraMax i3). The MyoD1/ID ELISA was performed as above except that 100 ng of recombinant human His-tagged MyoD1 (Proteintech, Cat# Ag13186) was plated overnight at 4°C prior to the addition of 100 ng of recombinant human GST-ID1 (Proteintech, Cat# Ag13359) preincubated to with compounds. The anti-GST antibody (clone 26H1, Cell signaling Technology, Cat #2624) was used to detect bound ID1. […]

BJAB cells = experiment: Apoptosis, annexin staining flow cytometry; format: cell-based, human
[2] = tested on: BCL10 and MALT1 mRNA in TMD8 cells; experiment: BCL10 and MALT1 mRNA expression, qRT-PCR; format: cell-based, human; conditions: TMD8, 1 μM
TMD8 tumor xenografts = experiment: TMD8 xenograft in NOD-SCID mice; format: in vivo, mouse
Description: TMD8 cells were engrafted into 8-week-old female NOD.CB17-Prkdc^scid/J (NOD-SCID) mice from The Jackson Laboratory by subcutaneous injection of 10 × 10^6 cells resuspended in 50% Cultrex Basement Membrane Extract (R&D Systems, catalog 3632-010-02) into the right flank. OCI-Ly3 cells were engrafted into 5-week-old female NOD.Cg-Prkdc^scid Il2rg^tm1Wjl/SzJ (NSG) mice from The Jackson Laboratory by subcutaneous injection of 2.5 × 10^6 cells resuspended in Cultrex as above. OCI-Ly1 cells were engrafted into 6.5-week-old female NSG mice from The Jackson Laboratory by subcutaneous injection of 20 × 10^6 cells resuspended in Cultrex as above. For all xenograft models, when tumors reached an average volume of 100 mm^3, mice were randomized to receive M1i-124 (50 mg/kg i.p. per day), or equivalent volume of DMSO vehicle (50 μL i.p. per day). […] Tumor size was measured 3 times a week using a caliper and calculated using the formula (smallest diameter^2 × largest diameter)/2. Mice were sacrificed 24 hours after the last injection. Mice were sacrificed when the largest tumors reached 2,500 mm^3. For TMD8 xenograft experiments, tumors and various organs, including lung, heart, liver, and kidney, were collected and fixed in 10% buffered formalin, embedded in FFPE blocks, sectioned, and stained with H&E. Sections were evaluated by a board-certified pathologist.

OCI-Ly1 cells = experiment: CellTiter-Glo ATP viability; format: cell-based, human
Description: (§1) Cell proliferation, viability, and apoptosis assays. […]
(§2) Fluorescent Intensity (MFI) was analyzed by FlowJo (version 10.8.0, BD). CellTiter-glo luminescence assay (Promega, Cat# G7570) was used to quantify ATP levels as a surrogate marker of metabolic viability in DLBCL cells treated with compounds for 6-8 days. Annexin V Alexa 488 (ThermoFisher Scientific, Cat# A13201) and SYTOX Blue Dead Cell (ThermoFisher Scientific, Cat# S34857) stains were used to detect apoptosis in DLBCL cells after treatment with 1 µM compounds for 8 days in TMD8 and OCI-Ly1 and for 5 days in OCI-Ly3 cells, then analyzed with flow cytometry. The percentages of cells in early and late apoptosis were combined for quantification. For CellTrace Violet, CellTiter-glo, and Annexin V apoptosis assays, cell were cultured in media with 50% of the usual serum. […]

TMD8 cells = experiment: CellTiter-Glo ATP viability; format: cell-based, human
Description: as §1, §2

[3] = tested on: IL-2 secretion from primary mouse splenocytes; experiment: Secreted IL-2 ELISA, stimulated primary splenocytes; format: cell-based; conditions: Suppl Fig. 4B; for IL-2 protein level (% of control) / activity at 5 µM: 5 uM; for activity at 1 µM / activity at 5 µM: Mus musculus, Splenocyte, read-out: IL-2 protein level (% of control)

Compound: O=S(=O)(NCc1ccc2c(c1)OCO2)c1ccc(Cc2ccc(S(=O)(=O)NCc3ccc4c(c3)OCO4)cc2)cc1 [M1i-124]
- MyoD-Id Interaction (% of control) ([1]; 0.0975 µM): 75 % of control and 118.107 % of control and 86.1723 % of control
- MyoD-Id Interaction (% of control) ([1]; 0.39 µM): 70.9459 % of control and 110.989 % of control and 93.988 % of control
- MyoD-Id Interaction (% of control) ([1]; 1.56 µM): 102.244 % of control and 139.153 % of control and 113.828 % of control
- MyoD-Id Interaction (% of control) ([1]; 6.25 µM): 126.689 % of control and 146.808 % of control and 132.264 % of control
- MyoD-Id Interaction (% of control) ([1]; 12.5 µM): 149.548 % of control and 131.062 % of control
- remaining activity at 12.5 µM ([1]; 12.5 µM, read-out: MyoD-Id Interaction (% of control)): 145%
- MyoD-Id Interaction (% of control) ([1]; 25 µM): 150.772 % of control and 122.599 % of control and 116.032 % of control
- MyoD-Id Interaction (% of control) ([1]; 50 µM): 152.034 % of control and 140.013 % of control
- remaining activity at 50 µM ([1]; 50 µM, read-out: MyoD-Id Interaction (% of control)): 158%
- MyoD-Id Interaction (% of control) ([1]; 100 µM): 153.861 % of control and 138.475 % of control and 133.2 % of control
- inhibition of binding of Id1 to immobilized MyoD [1]: neither M1i-124 nor M1i-124d1 could inhibit
- Annexin (% positivity) (BJAB cells; BJAB, individual replicates): 34.8% and 31.55% and 33.15%
- apoptosis of BJAB cells (BJAB cells; result in words): either no or minimal apoptotic response
- BCL10 mRNA (normalized) ([2]; 48 hrs): 1.102 and 1.661 and 1.831
- BCL10 mRNA (normalized) ([2]; 72 hrs): 2.063 and 2.239 and 2.314
- MALT1 mRNA (normalized) ([2]; 72 hrs): 1.674 and 1.428 and 1.962
- growth of TMD8 tumor xenografts (tumor volume, terminal tumor weight) (TMD8 tumor xenografts; 50 mg/kg i.p. per day, 12 days, vs DMSO, result in words): significantly suppressed
- body weight of xenograft mice (TMD8 tumor xenografts; at conclusion of experiment, result in words): slightly lower body weights
- microscopic evaluation of major organs (TMD8 tumor xenografts; heart, lung, liver, adrenal, kidney, result in words): no signs of histologic abnormality
- Terminal body weights (TMD8 tumor xenografts; individual mice): 17.69 g and 19.26 g and 19.45 g and 20.17 g and 20.3 g and 20.4 g and 20.6 g and 20.42 g
- clinical signs during treatment (TMD8 tumor xenografts; result in words): No abnormal clinical signs or indicators of adverse reaction were observed
- CellTiter-Glo viability (% of control) (OCI-Ly1 cells; OCI-Ly1, M1i-124 (µM) 0.02): 107.27% and 98.9873% and 92.7867%
- CellTiter-Glo viability (% of control) (OCI-Ly1 cells; OCI-Ly1, M1i-124 (µM) 0.05): 97.4522% and 115.002% and 102.297%
- CellTiter-Glo viability (% of control) (OCI-Ly1 cells; OCI-Ly1, M1i-124 (µM) 0.1): 110.647% and 95.1607% and 118.153%
- CellTiter-Glo viability (% of control) (OCI-Ly1 cells; OCI-Ly1, M1i-124 (µM) 0.2): 107.42% and 81.8681% and 81.0306%
- CellTiter-Glo viability (% of control) (OCI-Ly1 cells; OCI-Ly1, M1i-124 (µM) 0.5): 117.286% and 98.6082% and 99.6544%
- CellTiter-Glo viability (% of control) (OCI-Ly1 cells; OCI-Ly1, M1i-124 (µM) 1): 125.229% and 113.171% and 94.1756%
- CellTiter-Glo viability (% of control) (OCI-Ly1 cells; OCI-Ly1, M1i-124 (µM) 2): 125.761% and 123.625% and 96.808%
- CellTiter-Glo viability (% of control) (OCI-Ly1 cells; OCI-Ly1, M1i-124 (µM) 5): 145.729% and 138.657% and 113.755%
- IC50 (TMD8 cells; Homo sapiens, TMD8 cells, read-out: 50% cytotoxic concentration): ~200 nM
- viability of TMD8 cells (TMD8 cells; result in words): loss of cell viability; also recorded: dose-dependent decrease in viability

Compound: COc1ccc(CNS(=O)(=O)c2ccc(Cc3ccc(S(=O)(=O)NCc4ccc(OC)cc4)cc3)cc2)cc1 [M1i-124d1]
- MyoD-Id Interaction (% of control) ([1]; 0.0975 µM): 78.8369 % of control and 104.379 % of control and 92.0174 % of control
- MyoD-Id Interaction (% of control) ([1]; 0.39 µM): 96.3277 % of control and 95.1904 % of control
- remaining activity at 0.39 µM ([1]; 0.39 µM, read-out: MyoD-Id Interaction (% of control)): 80.9%
- MyoD-Id Interaction (% of control) ([1]; 1.56 µM): 85.8349 % of control and 109.633 % of control and 85.4375 % of control
- MyoD-Id Interaction (% of control) ([1]; 6.25 µM): 108.475 % of control and 92.4516 % of control
- remaining activity at 6.25 µM ([1]; 6.25 µM, read-out: MyoD-Id Interaction (% of control)): 97.9%
- MyoD-Id Interaction (% of control) ([1]; 12.5 µM): 119.401 % of control and 82.5424 % of control and 93.487 % of control
- MyoD-Id Interaction (% of control) ([1]; 25 µM): 109.677 % of control and 97.6271 % of control and 64.0281 % of control
- MyoD-Id Interaction (% of control) ([1]; 50 µM): 120.512 % of control and 93.4463 % of control and 89.2118 % of control
- MyoD-Id Interaction (% of control) ([1]; 100 µM): 139.841 % of control and 108.927 % of control and 105.812 % of control
- inhibition of binding of Id1 to immobilized MyoD [1]: neither M1i-124 nor M1i-124d1 could inhibit

Compound: CN1CCCC(CN2c3ccccc3Sc3ccccc32)C1 (stereo not drawn) [Mepazine, mepazine, reference compound]
- IL-2 protein level (% of control) ([3]; CD3/CD28 treated): 22.2086 % of control and 29.3738 % of control
- activity at 1 µM ([3]; CD3/CD28 treated): 82.7%
- activity at 5 µM ([3]; CD3/CD28 treated): 15.6%
- activity at 1 µM ([3]; PMA/Iono treated): 83.3%
- activity at 5 µM ([3]; PMA/Iono treated): 22.3%
- IL-2 protein level (% of control) ([3]; PMA/Iono treated): 17.095 % of control and 28.7342 % of control
